We go through two sequences from patent US9303076B2, “Cell-penetrating peptides and uses thereof” (Hoffmann-La Roche Inc., priority 2010, dated 2016).

The target in assay [1] is T1, recombinant BCL2 (Homo sapiens, UniProt P10415).
T1 construct: purchased Calbiochem/Merck, Darmstadt, Germany
Nature of the assay: BCL2 binding to bead-immobilized peptides. The conditions noted are these: iodoacetyl beads, elution buffer pH 2.8, protein stain. Here is the method:
In order to determine whether the BCL2 binding properties of the Nur77-derived peptide are maintained in the NurNRTN fusion peptide, the respective NurNRTN and NRTN peptides were coupled to iodoacetyl beads (Pierce Biotechnology, Inc., Rockford, Ill., USA). The beads were incubated with recombinant BCL2 (Calbiochem/Merck, Darmstadt, Germany) and washed with PBS and 0.5 M NaCl, 0.025 NaN3, 0.05% Tween20 to remove unbound protein. Specific binding of BCL2 to the immobilized NurNTRN fusion peptide was determined by eluting bound […] from the beads with elution buffer (pH 2.8), transfer of the eluted fraction to nitrocellulose (Invitrogen Corporation, Carlsbad, Calif., USA), and protein detection by means of the MemCode Reversible Protein Stain Kit (Pierce Biotechnology, Inc., Rockford, Ill., USA).

The test system of assay [2] is MCF-7 human breast cancer cells. As to the kind of experiment: cell viability/apoptosis after 24 h exposure to pro-apoptotic peptides and CPP fusions. The conditions noted are these: MCF-7 cells, various concentrations. The class given is cell-based. The procedure:
MCF-7 human breast cancer cells were incubated for 24 h in the presence of various concentrations of NRTN (squares), Nur (circles), and NurNRTN (triangles) peptides. The respective amino acid sequences are given in the bottom panel. The experimental approach for assessing cell viability (and thus induction of apoptosis) was the same as in FIG. 3.
MCF-7 human breast cancer cells were incubated for 24 h in the presence of various concentrations of 4E-BP1 (circles), TAT4E-BP1 (squares), and NRTN4E-BP1 (triangles) peptides (top panel). […] The respective amino acid sequences are given in the bottom panel. The experimental approach for assessing cell viability (and thus induction of apoptosis) was the same as in FIG. 3.
Luminescence was analyzed in an InfiniteF200 luminescence reader.
Then, the cells were treated with a luminogenic peptide substrate in order to measure dead-cell protease activity, which is released from cells that have lost membrane integrity. […] The luminescence of this assay therefore represents dead cells. The 96 well plates were then analyzed in an InfiniteF200 luminescence reader.
Despite its proven ability to convert BCL-2 into a pro-apoptotic molecule, addition of the latter peptide (i.e. “Nor/Nur”; SEQ ID NO: 72) to cancer cells, even in high concentrations, is not sufficient to induce apoptosis, as the cellular target protein is located in the cytoplasm, but the peptide per se cannot effectively penetrate through the cell membrane to reach the target. In brief, MCF-7 breast cancer cells were incubated in the presence of this peptide for 24 h.
Subsequently, it was evaluated whether the NurNRTN fusion peptide is capable of penetrating cellular membranes and thereby induces pro-apoptotic activity within cells. MCF-7 human breast cancer cells were used as a model. The experimental approach was as described above (cf. Example 1). […] This effect was dose dependent: cytotoxicity increased with increasing concentrations of peptide.
Subsequently, it was evaluated whether the NRTN4E-BP1 fusion peptide is capable of penetrating cellular membranes and thereby induces pro-apoptotic activity within cells. MCF-7 human breast cancer cells were used as a model. The experimental approach was as described above (cf. Example 1). […] This effect was dose dependent: cytotoxicity increased with increasing concentrations of peptide.

For assay [3], the system named is human Aha1 mRNA. Nature of the assay: siRNA transfection screening (siAha1 vs siGL3 control, bDNA assay of Aha1/GAPDH mRNA). It is filed as cell-based. The following applies: 20 μM; threshold value of FIG. 3. Here is the method: For the quantification of cellular mRNA levels bDNA (branched DNA) assays were performed which enable the detection of individual mRNA levels. To this end, a defined number of the cells to be analyzed was seeded into 96-well plates and allowed to attach over night. On the next day, the cells were transfected with siRNA.
After further 24 hours, the mRNA species were quantified using the QuantiGene Plex 2.0 assay kit according to the manufacturers instructions (Affymetrix Inc., Santa Clara, Calif., USA). In brief, cell lysates were transferred to a capture plate in the presence of a gene-specific probe set and incubated at 53° C. over night. After washing, the wells were sequentially incubated at 53° C. with an amplifier agent and an alkaline phosphatase (AP)-linked label probe with a washing step in between. Subsequently, the luminescent AP substrate dioxitane was added and incubated for 30 min at 53° C. Luminescence was assayed using an InfiniteF200 luminescence reader (Tecan Austria GmbH, Groding, Austria).
In order to analyze the potential CPPs for their ability to transfect siRNA into mammalian cells an increasing peptide concentration (from 1 μM to 20 μM) was employed along with a constant siRNA concentration (100 nM). This range of peptide concentrations was used as it had been shown that positively charged peptides such as TAT are internalized into cells in ranges up to 10 μM and remain in intracellular membrane compartments without significant egress into the cytosol (Duchardt, F. et al. (2007) Traffic 8, 848-866). […] A concentration of 10 nM siRNA is in the saturation range as determined in control experiments using the DharmaFECT transfection reagent (Dharmacon, Inc., Lafayette, Colo., USA; data not shown).
The siRNA oligonucleotides employed were directed against human Aha1 mRNA (Panaretou, B. et al. (2002) Mol. Cell 10, 1307-1318) or against luciferase mRNA as a control.
Complexes of siRNA and the respective peptides were formed in OptiMEM medium and incubated for 15 minutes at room temperature. The cells were incubated in the presence of the complexes for three hours in OptiMEM. After washing, the cells were incubated for further 21 or 45 hours in normal growth medium. Thereafter, the levels of Aha1 mRNA and a reference mRNA (i.e. GAPDH mRNA) were measured by means of a bDNA assay. These assays were performed with cells that were transfected with siAHA1 and with a control siRNA (siGL3, luciferase), respectively.
As a measure for specific RNAi, the reduction of Aha1 mRNA levels relative to GAPDH mRNA levels was compared in siAHA1-transfected cells and siGL3-transfected cells. Specific siRNA mediated transfection causes a reduction in Aha1/GAPDH mRNA values in siAhA1-compared to siGL3-transfected cells. FIG. 3 depicts the screening readout of these assays: the Aha1/GAPDH mRNA values of non-transfected control cells were set to 100% (for each assay), and the Aha1/GAPDH mRNA values of siAha1- or siGL3-transfected cells were expressed relative to that. For this normalized data set, the differences between the respective Aha1/GAPDH mRNA levels of siAha1- and siGL3-transfected cells were determined. Specific peptides caused a significant reduction in siAha1 transfection without reducing siGL3 transfections, which results in positive difference values. The more pronounced these values are, the more specific RNAi is observed (cf. FIG. 3).

Assay [4] deals with siRNA duplex. Nature of the assay: gel-shift assay of peptide/siRNA complex formation. The following applies: ethidium bromide staining. It is filed as binding. The procedure:
Gel-shift assays were performed by mixing […] siRNA duplex with the respective peptides in a given molar ratio in water. The complexes were formed for 1 hour at 37° C. and analyzed on a 2.5% agarose gel with ethidium bromide (run: 40 minutes at 125 V). For proteinase K treatment, 1 μl proteinase K was added to a standard reaction as indicated above.
Mechanisms that may explain transfection functionalities of charged peptides such as TAT or protamine include the formation of complexes between positively charged peptides and negatively charged nucleic acids. Such complexes enable peptide-mediated membrane-interacting and/or endosome escape functionalities to transfer the complexed nucleic acids into the cytosol of cells (Law, M. et al. (2008) Biotechnol. Prog. 24, 957-963) In order to address whether the above mechanism may apply to the NTRN-derived peptide as well gel-shift assays were performed (cf. FIG. 8). To this end, siRNA was co-incubated with increasing concentrations of peptide, followed by analyses of their migration pattern via gel electrophoresis.

T1 sequence (P10415 whole entry): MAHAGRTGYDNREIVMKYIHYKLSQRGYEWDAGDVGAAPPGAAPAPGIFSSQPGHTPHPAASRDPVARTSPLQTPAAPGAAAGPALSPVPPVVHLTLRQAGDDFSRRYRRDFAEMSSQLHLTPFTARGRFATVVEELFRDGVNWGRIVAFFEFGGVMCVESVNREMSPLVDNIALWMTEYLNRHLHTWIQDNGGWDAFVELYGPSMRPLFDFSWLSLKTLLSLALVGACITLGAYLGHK

Regarding “FSRSLHSLLYDLGLRRLRQRRRLRRERVRA (NurNRTN peptide sequence)”, the “BCL2 in eluates from peptide-coated beads” value in assay [1] was “BCL2 can be detected in eluates”. Besides, the “cell viability / induction of apoptosis” value in assay [2] is “remarked cytotoxicity”.
In the case of “GRKKRRQRRRPPQ (Human immunodeficiency virus 1; TAT peptide sequence) [reference compound]”, the “difference of Aha1/GAPDH for luciferase siRNA and Aha1/GAPDH for Aha1 siRNA (Transfection)” value in assay [3] was 18%. Also, the “complex formation with siRNA” value in assay [4] is recorded as “forms complexes with the siRNA molecules”.
